The source of these data is patent US20110039819A1, “SUBSTITUTED PHENOXYBENZAMIDES” (priority 2008, published 2011).

This assay deals with T1, MEK1 (Homo sapiens, UniProt Q02750).
T1 construct: purchased Millipore 14-420 (GST-MEK1); 14-703 (Cot1); host or cells: Cot1: insect cells (SF21)
The experiment in a line: MEK1 activation kinase assay (Assay 2, HTRF; Cot1 phosphorylates GST-MEK1). Format: biochemical. The method, then:
MEK1 Activation Kinase Assay
The kinase Cot1 activates MEK1 by phosphorylating its activation loop. The inhibitory activity of compounds of the present invention on this activation of MEK1 was quantified employing the HTRF assay described in the following paragraphs.
As substrate for the kinase reaction the unactive C-terminally His6-tagged GST-MEK1 fusion protein (Millipore cat. no 14-420) was used.
Then the kinase reaction was started by the addition of 2 μl of a solution of Cot1 in assay buffer and the resulting mixture was incubated for a reaction time of 20 min at 22° C. The concentration of Cot1 in the assay was adjusted depending of the activity of the enzyme lot and was chosen appropriate to have the assay in the linear range, typical enzyme concentrations were in the range of about 2 ng/μl (final conc. in the 5 μl assay volume).
The resulting mixture was incubated 2 h at 22° C. to allow the binding of the phosphorylated GST-MEK1 to the anti-GST-XL665 and the Eu-cryptate labelled anti-phospho-MEK 1/2 antibody. Subsequently the amount of Ser217/Ser221-phosphorylated substrate was evaluated by measurement of the resonance energy transfer from the Eu-Cryptate-labelled anti-phospho-MEK antibody to the anti-GST-XL665.

Setting [1] is: mean values from 2 or more measurements, read-out: Assay 2 IC50 values (nanomolar) (MEK1 activation kinase assay) (values are mean values from 2 or more measurements).
Setting [2] is: representative example compounds, read-out: IC50 in MEK1 activation kinase assay.

Read-outs that look alike come from different tables or passages of the source.

T1 sequence (Q02750 whole entry): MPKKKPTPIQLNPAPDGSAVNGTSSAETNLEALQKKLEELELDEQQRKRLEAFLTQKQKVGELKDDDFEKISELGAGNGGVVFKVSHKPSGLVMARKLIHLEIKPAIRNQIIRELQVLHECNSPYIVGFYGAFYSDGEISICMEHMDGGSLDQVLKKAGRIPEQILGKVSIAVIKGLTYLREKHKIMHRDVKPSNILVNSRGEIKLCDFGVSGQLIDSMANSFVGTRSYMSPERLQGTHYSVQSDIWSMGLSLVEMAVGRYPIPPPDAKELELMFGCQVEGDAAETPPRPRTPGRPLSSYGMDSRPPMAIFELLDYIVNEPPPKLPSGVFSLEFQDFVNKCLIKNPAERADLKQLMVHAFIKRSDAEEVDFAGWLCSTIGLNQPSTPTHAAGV

As to `CC(C)(O)C(O)CCOc1cc(F)cc(Nc2ccc(I)cc2F)c1C(N)=O` (single isomer, unassigned) [Example 6.3, 2-(3,4-Dihydroxy-4-methyl-pentyloxy)-4-fluoro-6-(2-fluoro-4-iodo-phenylamino)-benzamide], the IC50 under setting [1] amounted to 30.6 nM. Still for that read-out and setting: next, `CC(C)(O)C(O)CCOc1cc(F)cc(Nc2ccc(I)cc2F)c1C(N)=O` (single isomer, unassigned) [Example 6.4, 2-(3,4-Dihydroxy-4-methyl-pentyloxy)-4-fluoro-6-(2-fluoro-4-iodo-phenylamino)-benzamide]: 29.5 nM; `CC(O)(CO)CCOc1cc(F)cc(Nc2ccc(I)cc2F)c1C(N)=O` (single isomer, unassigned) [Example 6.5, 2-(3,4-Dihydroxy-3-methyl-butoxy)-4-fluoro-6-(2-fluoro-4-iodo-phenylamino)-benzamide]: 172 nM. The same measure, in the same setting: next, `CC(O)(CO)CCOc1cc(F)cc(Nc2ccc(I)cc2F)c1C(N)=O` (single isomer, unassigned) [Example 6.6, 2-(3,4-Dihydroxy-3-methyl-butoxy)-4-fluoro-6-(2-fluoro-4-iodo-phenylamino)-benzamide]: 80.3 nM; `CN(C)S(=O)(=O)Nc1cccc(Oc2cc(F)cc(Nc3ccc(I)cc3F)c2C(N)=O)c1` [Example 2.1, 2-[3-[[(dimethylamino)sulfonyl]amino]phenoxy]-4-fluoro-6-[(2-fluoro-4-iodophenyl)amino]-benzamide]: 21.8 nM.

For the molecule `CN(C)S(=O)(=O)Nc1cccc(Oc2cc(F)cc(Nc3ccc(I)cc3)c2C(N)=O)c1` [Example 2.16, 2-{3-[(dimethylsulfamoyl)amino]phenoxy}-4-fluoro-6-[(4-iodophenyl)amino] benzamide], the IC50 was 47.3 nM under setting [1] and less than 1000 nM under setting [2].

`Cc1cc(I)ccc1Nc1cc(F)cc(Oc2cccc(NS(=O)(=O)N(C)C)c2)c1C(N)=O` [Example 2.17, 2-{3-[(dimethylsulfamoyl)amino]phenoxy}-4-fluoro-6-[(4-iodo-2-methylphenyl)amino] benzamide]: the IC50 by setting is: under setting [1], 39.8 nM; under setting [2], less than 1000 nM. Consider `CC(C)(C)OC(=O)Nc1cccc(Oc2c(F)c(F)c(F)c(Nc3ccc(I)cc3F)c2C(N)=O)c1` [Example 2.19, {3-[2-Carbamoyl-4,5,6-trifluoro-3-(2-fluoro-4-iodo-phenylamino)-phenoxy]-phenyl}-carbamic acid tert-butyl ester], for which the IC50 runs as follows: under setting [1], 152 nM; under setting [2], less than 1000 nM.

For `CN(C)S(=O)(=O)Nc1cccc(Oc2c(F)c(F)c(F)c(Nc3ccc(I)cc3F)c2C(N)=O)c1` [Example 2.20, 2-{3-[(dimethylsulfamoyl)amino]phenoxy}-3,4,5-trifluoro-6-[(2-fluoro-4-iodophenyl)amino]-benzamide], the IC50 runs as follows: under setting [1], 16.5 nM; under setting [2], less than 1000 nM. As for `CC(=O)Nc1ccc(Oc2cc(F)cc(Nc3ccc(I)cc3F)c2C(N)=O)cc1` [Example 4.5, 2-(4-Acetylamino-phenoxy)-4-fluoro-6-(2-fluoro-4-iodo-phenylamino)-benzamide], the IC50 under setting [2] was less than 1000 nM.

As for `CNC(=O)c1c(Nc2ccc(I)cc2F)cc(F)cc1Oc1cccc(NS(=O)(=O)N(C)C)c1` [Example 4.17, 2-[3-[[(dimethylamino)sulfonyl]amino]phenoxy]--4-fluoro-6-[(2-fluoro-4-iodophenyl)amino]-N-methyl-benzamide], the IC50 under setting [1] worked out at 61.3 nM. `CN(C)S(=O)(=O)Nc1cccc(Oc2cc(F)cc(Nc3ccc(I)cc3F)c2C(=O)NCCO)c1` [Example 4.18, 2-[3-[[(dimethylamino)sulfonyl]amino]phenoxy]--4-fluoro-6-[(2-fluoro-4-iodophenyl)amino]-N-(2-hydroxy-ethyl)-benzamide]: the IC50 under setting [1] is 69.9 nM. `CN(C)S(=O)(=O)Nc1cccc(Oc2cc(F)cc(Nc3ccc(I)cc3F)c2C(=O)NCCCO)c1` [Example 4.19]: under setting [1], the IC50 worked out at 80.1 nM. With `C[C@H](CO)NC(=O)c1c(Nc2ccc(I)cc2F)cc(F)cc1Oc1cccc(NS(=O)(=O)N(C)C)c1` [Example 4.20, 2-[3-[[(dimethylamino)sulfonyl]amino]phenoxy]--4-fluoro-6-[(2-fluoro-4-iodophenyl)amino]-N-((R)-2-hydroxy-1-methyl-ethyl)-benzamide], the IC50 under setting [1] amounted to 89.3 nM. Same read-out and setting: in the case of `C[C@@H](CO)NC(=O)c1c(Nc2ccc(I)cc2F)cc(F)cc1Oc1cccc(NS(=O)(=O)N(C)C)c1` [Example 4.21, 2-[3-[[(dimethylamino)sulfonyl]amino]phenoxy]--4-fluoro-6-[(2-fluoro-4-iodophenyl)amino]-N-((S)-2-hydroxy-1-methyl-ethyl)-benzamide] it was 248 nM; in that of `C[C@@H](O)CNC(=O)c1c(Nc2ccc(I)cc2F)cc(F)cc1Oc1cccc(NS(=O)(=O)N(C)C)c1` [Example 4.22, 2-[3-[[(dimethylamino)sulfonyl]amino]phenoxy]--4-fluoro-6-[(2-fluoro-4-iodophenyl)amino]-N-((R)-2-hydroxy-propyl)-benzamide], 163 nM.

In the case of `C[C@H](O)CNC(=O)c1c(Nc2ccc(I)cc2F)cc(F)cc1Oc1cccc(NS(=O)(=O)N(C)C)c1` [Example 4.23, 2-[3-[[(dimethylamino)sulfonyl]amino]phenoxy]--4-fluoro-6-[(2-fluoro-4-iodophenyl)amino]-N-((S)-2-hydroxy-propyl)-benzamide], the IC50 under setting [1] stood at 132 nM. As to `CN1CCC[C@H]1COc1cc(F)cc(Nc2ccc(I)cc2F)c1C(N)=O` [Example 4.25, 4-Fluoro-2-(2-fluoro-4-iodo-phenylamino)-6-((S)-1-methyl-pyrrolidin-2-ylmethoxy)-benzamide], the IC50 is, setting by setting: under setting [1], 182 nM; under setting [2], less than 1000 nM. Regarding `Cn1cc(Oc2cc(F)cc(Nc3ccc(I)cc3F)c2C(N)=O)cn1` [Example 4.27, 4-Fluoro-2-(2-fluoro-4-iodo-phenylamino)-6-(1-methyl-1H-pyrazol-4-yloxy)-benzamide], the IC50 reads like this: under setting [1], 258 nM; under setting [2], less than 1000 nM. On to `NC(=O)c1c(Nc2ccc(I)cc2F)cc(F)cc1Oc1cccc(CS(N)(=O)=O)c1` [Example 4.33, 4-Fluoro-2-(2-fluoro-4-iodo-phenylamino)-6-(3-sulfamoylmethyl-phenoxy)-benzamide], for which the concentration for half-maximal inhibition (IC50) reads like this: under setting [1], 31.5 nM; under setting [2], less than 1000 nM. On the same counts, the results for `CS(=O)(=O)Cc1cccc(Oc2cc(F)cc(Nc3ccc(I)cc3F)c2C(N)=O)c1` [Example 4.34, 4-Fluoro-2-(2-fluoro-4-iodo-phenylamino)-6-(3-methane-sulfonylmethyl-phenoxy)-benzamide] are 23.5 nM and less than 1000 nM. Taken in the same sequence, the figures for `NC(=O)c1cccc(Oc2cc(F)cc(Nc3ccc(I)cc3F)c2C(N)=O)c1` [Example 4.37, 2-(3-Carbamoyl-phenoxy)-4-fluoro-6-(2-fluoro-4-iodo-phenylamino)-benzamide] were 26.6 nM and less than 1000 nM. Consider `CCCNS(=O)(=O)Nc1cccc(Oc2cc(F)cc(Nc3ccc(I)cc3F)c2C(N)=O)c1` [Example 5.2, 2-[3-[[(propylamino)sulfonyl]amino]phenoxy]-4-fluoro-6-[(2-fluoro-4-iodophenyl)amino]-benzamide], for which the IC50 under setting [1] was 24 nM. For `CC(=O)Nc1cccc(Oc2cc(F)cc(Nc3ccc(I)cc3F)c2C(N)=O)c1` [Example 5.3, 2-(3-Acetylamino-phenoxy)-4-fluoro-6-(2-fluoro-4-iodo-phenylamino)-benzamide], the IC50 was 28.1 nM under setting [1] and less than 1000 nM under setting [2].
